Literature values, collected in patent US11541018B2 (priority 2016, dated 2023).

Columns and labels:
[1] = active agent (base)
[2] = active agent (base); remark: listed apart in the source

ropinole
LogP [1]: 2.7 | Water solubility [2]: 133 mg/mL
